Reference: patent US9040554B2, “Solid forms of nematocidal sulfonamides” (priority 2011, dated 2015)

Columns and labels:
[1] = Relative stability experiments: non-competitive and competitive interconversion of crystal forms of Compound 1; format: physicochemical; details: for crystal form of the resulting material (pXRD, DSC, TGA, 1H-NMR): non-competitive, single starting form, refluxed in deionized water at about 95° C. for 3 hours
Protocol: The relative stability of various crystal forms of Compound 1 were subjected to non-competitive and competitive interconversion experiments.
In Example 12a, Form A of Compound 1 (0.4 g) prepared according to Preparation Example 5c was refluxed in deionized water (4 mL) at about 95° C. for 3 hours. The slurry was cooled to 25-30° C., filtered, suction dried for 1 hour and dried in a vacuum oven at 70° C. and 8 kPa absolute pressure for 12 hours.
(§1) In Example 12b, Form B of Compound 1 (0.4 g) prepared according to Preparation Example 5f was refluxed in deionized water (4 mL) at about 95° C. for 3 hours. The slurry was cooled to 25-30° C., filtered, suction dried for 1 hour and dried in a vacuum oven at 70° C. and 8 kPa absolute pressure for 12 hours. Analysis by pXRD, DSC, TGA and ^1H-NMR of the resulting material indicated Form A.
as §1, with “12c,” for “12b,”, “D” for “B”, “5g” for “5f”
as §1, with “12d,” for “12b,”, “TS” for “B”, “(1” for “(0.4”, “1” for “5f”, “(10” for “(4”, “65°” for “70°”
as §1, with “12e, Form A (0.6 g) and” for “12b,”, “B (0.6 g)” for “B”, “1” for “1 (0.4 g)”, “Examples 5c and 5f, respectively, were blended as solids and” for “Example 5f was”, “(12” for “(4”, “65°” for “70°”
(§2) In Example 12f, Form B (0.6 g) and Form D (0.6 g) of Compound 1 prepared according to Preparation Examples 5f and 5g, respectively, were blended as solids and refluxed in deionized water (12 mL) at about 95° C. for 3 hours. The slurry was cooled to 25-30° C., filtered, suction dried for 1 hour and dried in a vacuum oven at 65° C. and 8 kPa absolute pressure for 12 hours. Analysis by pXRD, DSC and ^1H-NMR of the resulting material indicated Form A.
as §2, with “12g,” for “12f,”, “A” for “B”, “5c” for “5f”
as §2, with “12h, Form A (0.25 g),” for “12f,”, “(0.25 g), Form D (0.25” for “(0.6”, “TS (0.25” for “D (0.6”, “5c, 5f, 5g,” for “5f”, “1,” for “5g,”, “(10” for “(12”
In Example 12i, Form A (0.25 g), Form B (0.25 g), Form D (0.25 g) and mixed Forms A and B (0.25 g) of Compound 1 prepared according to Preparation Examples 5c, 5f, 5g and 2, respectively, were blended as solids and refluxed in deionized water (10 mL) at about 95° C. for 3 hours. The slurry was cooled to 25-30° C., filtered, suction dried for 1 hour and dried in a vacuum oven at 65° C. and 8 kPa absolute pressure for 12 hours. Analysis by pXRD, DSC and ^1H-NMR of the resulting material indicated Form A. […]

[2] = Stability experiment for polymorph Form A of Compound 1 (stability chamber); format: physicochemical
Protocol: The physical stability of Form A of Compound 1 was determined as follows. Compound 1 prepared according to Preparation Example 3 was analyzed by pXRD, DSC, HPLC and ^1H-NMR and found to be of pure crystal Form A of 99.9% purity (by HPLC peak area at 230 nm detection wavelength). An aliquot of the sample (3.0 g) was placed in a primary polyethylene bag, the primary bag was flushed with nitrogen gas and sealed. The primary polyethylene bag was then placed in a secondary polyethylene bag which was again flushed with nitrogen gas and a silica gel sachet was placed between the inner and the outer bag. The double bagged material was then placed in a triple laminated aluminum pouch and placed in a stability chamber at 40° C. for 30 days. Analysis by HPLC and ^1H-NMR of the resulting material indicated pure Form A of Compound 1 of 99.9% purity (by HPLC peak area at 230 nm).

[3] = Example 12e, competitive: Form A + Form B blended, deionized water, about 95° C., 3 hours
[4] = Example 12g, competitive: Form A + Form D blended, deionized water, about 95° C., 3 hours
[5] = Example 12i, competitive: Forms A, B, D and mixed Forms A and B blended, deionized water, about 95° C., 3 hours
[6] = Example 12j, competitive: Forms A, B, D and mixed Forms A and B blended, methanol, about 55° C., 3 hours
[7] = Example 12k, competitive: Forms A, B and D blended, deionized water, about 55° C., 168 hours
[8] = Example 12h, competitive: Forms A, B, D and TS blended, deionized water, about 95° C., 3 hours
[9] = Example 12f, competitive: Form B + Form D blended, deionized water, about 95° C., 3 hours

## COc1ccc(Cl)c(S(=O)(=O)NC(=O)c2cn3cc(C(F)(F)F)cc(Cl)c3n2)c1 [Form A, 8-chloro-N-[(2-chloro-5-methoxyphenyl)sulfonyl]-6-(trifluoromethyl)-imidazo[1,2-a]pyridine-2-carboxamide]
[1]; [3]
  crystal form of the resulting material: Form A
[1]; [4]
  crystal form of the resulting material: Form A
[1]; [5]
  crystal form of the resulting material: Form A
[1]; [6]
  crystal form of the resulting material: Form A
[1]; [7]
  crystal form of the resulting material: Form A
[1]; [8]
  crystal form of the resulting material: Form A
[1]
  crystal form of the resulting material (pXRD, DSC, TGA, 1H-NMR): remained unchanged, i.e. Form A
[1]; under the conditions studied
  relative thermodynamic stability of the solid forms, in words: most thermodynamically stable polymorph form
[2]; 40° C. for 30 days
  crystal form after storage (pXRD and DSC): pure polymorph Form A
[2]; 40° C. for 30 days, sealed under nitrogen in double polyethylene bag and aluminum pouch
  purity after storage (HPLC peak area at 230 nm): 99.9%
[2]; pure solid form
  physical and chemical stability, in words: physically and chemically stable

## COc1ccc(Cl)c(S(=O)(=O)NC(=O)c2cn3cc(C(F)(F)F)cc(Cl)c3n2)c1 [Form B, 8-chloro-N-[(2-chloro-5-methoxyphenyl)sulfonyl]-6-(trifluoromethyl)-imidazo[1,2-a]pyridine-2-carboxamide]
[1]; [3]
  crystal form of the resulting material: Form A
[1]; [9]
  crystal form of the resulting material: Form A
[1]; [5]
  crystal form of the resulting material: Form A
[1]; [6]
  crystal form of the resulting material: Form A
[1]; [7]
  crystal form of the resulting material: Form A
[1]; [8]
  crystal form of the resulting material: Form A
[1]
  crystal form of the resulting material (pXRD, DSC, TGA, 1H-NMR): Form A

## COc1ccc(Cl)c(S(=O)(=O)NC(=O)c2cn3cc(C(F)(F)F)cc(Cl)c3n2)c1 [Form D, 8-chloro-N-[(2-chloro-5-methoxyphenyl)sulfonyl]-6-(trifluoromethyl)-imidazo[1,2-a]pyridine-2-carboxamide]
[1]; [9]
  crystal form of the resulting material: Form A
[1]; [4]
  crystal form of the resulting material: Form A
[1]; [5]
  crystal form of the resulting material: Form A
[1]; [6]
  crystal form of the resulting material: Form A
[1]; [7]
  crystal form of the resulting material: Form A
[1]; [8]
  crystal form of the resulting material: Form A
[1]
  crystal form of the resulting material (pXRD, DSC, TGA, 1H-NMR): Form A

## COc1ccc(Cl)c(S(=O)(=O)NC(=O)c2cn3cc(C(F)(F)F)cc(Cl)c3n2)c1 [Form TS, 8-chloro-N-[(2-chloro-5-methoxyphenyl)sulfonyl]-6-(trifluoromethyl)-imidazo[1,2-a]pyridine-2-carboxamide]
[1]; [8]
  crystal form of the resulting material: Form A
[1]
  crystal form of the resulting material (pXRD, DSC, TGA, 1H-NMR): Form A

## COc1ccc(Cl)c(S(=O)(=O)NC(=O)c2cn3cc(C(F)(F)F)cc(Cl)c3n2)c1 [mixed Forms A and B, 8-chloro-N-[(2-chloro-5-methoxyphenyl)sulfonyl]-6-(trifluoromethyl)-imidazo[1,2-a]pyridine-2-carboxamide]
[1]; [5]
  crystal form of the resulting material: Form A
[1]; [6]
  crystal form of the resulting material: Form A
[1]; Example 12l: slurry in deionized water stirred at 25° C. for about 168 hours
  crystal form of the resulting material: Form A
